Measurements from article PMC3718762, “Differential Disruption of EWS-FLI1 Binding by DNA-Binding Agents” (PLoS ONE, 2013).
Structures can show the parent of a compound that is named as a salt. Where two headings read alike, the source gives them in different places.

How the values were obtained:
[1] = target: EWS-FLI1; test: AlphaScreen proximity assay, binding of recombinant EWS-FLI1 to cognate DNA oligo; settings: for IC50: read-out: IC50 EWS-FLI1, disruption of recombinant EWS-FLI1 binding to DNA; for Disruption of EWS-FLI1 binding compared with p53 binding in the parallel assays: EWS-FLI1 versus p53
[2] = target: T1, p53 (Homo sapiens, UniProt P04637); test: AlphaScreen proximity assay (counterscreen), binding of recombinant p53 to cognate DNA oligo
T1 construct: made in house; host or cells: bacteria (pGex-6P-1-p53); plasmid was a gift from Dr. Guangchao Sui
T1 sequence (P04637 whole entry, species assumed): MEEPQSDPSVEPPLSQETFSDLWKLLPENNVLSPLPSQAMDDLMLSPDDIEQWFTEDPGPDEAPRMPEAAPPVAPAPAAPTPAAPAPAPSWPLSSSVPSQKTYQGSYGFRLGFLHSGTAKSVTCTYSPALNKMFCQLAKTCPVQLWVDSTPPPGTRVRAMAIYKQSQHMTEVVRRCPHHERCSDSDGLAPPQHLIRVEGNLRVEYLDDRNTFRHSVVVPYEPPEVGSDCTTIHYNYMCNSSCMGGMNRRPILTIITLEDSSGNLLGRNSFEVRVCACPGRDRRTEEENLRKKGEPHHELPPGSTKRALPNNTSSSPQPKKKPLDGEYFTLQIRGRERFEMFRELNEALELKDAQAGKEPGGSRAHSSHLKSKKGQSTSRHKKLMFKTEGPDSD
Text: An AlphaScreen assay for binding of recombinant EWS-FLI1 to DNA was previously described. Briefly, recombinant EWS-FLI1 and p53 were synthesized in bacteria transformed with pGex-6P-1-EWS-FLI1 or pGex-6P-1-p53, and bound to AlphaScreen acceptor beads. A biotinylated oligonucleotide containing two copies of the EWS-FLI1 binding motif or p53 binding motifs was bound to AlphaScreen donor beads. For EWS-FLI1, the oligo sequence was: […]. The p53 binding oligo sequence was: […]. This assay was used to screen 5,200 compounds, as previously described. IC50 values were calculated with the GraphPad Prism software package.
We developed a homogeneous AlphaScreen assay to assess the binding of recombinant EWS-FLI1 to DNA [18]. A parallel assay assessing binding of p53 to DNA was used as a counterscreen. Briefly, in these proximity assays, recombinant GST-EWS-FLI1 or GST-p53 was bound to glutathione-conjugated AlphaScreen acceptor beads, and a synthetic biotinylated oligonucleotide (oligo) containing tandem EWS-FLI1 or p53 binding sites was bound to streptavidin-conjugated AlphaScreen donor beads. Binding of GST-EWS-FLI1 or GST-p53 to the cognate oligo allows singlet oxygen transfer from donor to acceptor beads when excited at 680 nm, with resulting light emission between 520–620 nm.

[3] = system: NR0B1 promoter; test: NR0B1-Luc firefly luciferase reporter assay in A673 cells; type: cell-based, human; settings: A673 cells, NR0B1-Luc versus UbC-RL
Text: The NR0B1 promoter was amplified from human genomic DNA using the 5′ primer- […] and 3′ primer - […]. NR0B1 promoter amplicon was cloned into the NheI and HindIII sites in the pGL.3Basic vector. The 5′ primer-[…] was used to amplify a truncated NR0B1 promoter in which the entire EWS-FLI1 binding region (GGAA repeats) was deleted to construct pGL.3b-NR0B1del. All constructs were confirmed by sequencing. All other plasmids were previously described.
Ewing sarcoma A673 cells at 50% confluence in 100 mm dishes were transfected with both 5.8 µg of pGL.3b-NR0B1 and 0.2 µg of pGL.3b-Ubc-RL reporter plasmids as above. Eight hours post-transfection, cells were trypsinized and 600 ul (2×10^5) of cells were added to each well of 24 well plates. 5 µl of different concentration of compounds or DMSO control were added to each well. Each treatment was performed in triplicate. Cells were incubated for 16 hours, then cells were lysed in 100 µl of lysis buffer and 10 µl of cell lysate was used for the dual luciferase assay. Renilla luciferase activity was used as an internal control for normalization of nonspecific transcriptional inhibition or cytotoxic effects. Experiments were repeated three times. IC50 values were calculated using Prism (Graphpad).
To determine the effect of compounds on EWS-FLI1 activity in cells, we used a reporter assay comprised of the NR0B1 promoter, a prototypical EWS-FLI1-regulated gene, driving expression of firefly luciferase. Renilla luciferase driven by the Ubiquitin C promoter (UbC-RL) was used as an internal control. Confirming prior studies, the NR0B1 promoter was verified to be highly responsive to EWS-FLI1, whereas the UbC promoter activity was not subject to regulation by EWS-FLI1 (Figure S1).

[4] = system: Ewing sarcoma cells; parameters: method as in PMID 21403840, PMID 21653923; settings: prior studies ref [11], [12]; cited from earlier work
[5] = system: EWS-FLI1 downstream targets; parameters: method as in PMID 21403840, PMID 21653923; settings: prior studies ref [11], [12]; cited from earlier work
[6] = AlphaScreen, disruption of recombinant p53 binding to DNA, read-out: IC50 p53

Molecule	IC50 [1]	IC50 [2, 6]	other results
CC(C)[C@H](CO)Nc1nc(Nc2cc(N)cc(Cl)c2)c2ncn(C(C)C)c2n1 [Aminopurvalanol A]	1.83 µM	1.2 µM	–
CCCCc1oc2ccccc2c1C(=O)c1cc(I)c(OCCN(CC)CC)c(I)c1 [Amiodarone HCl]	–	5.29 µM	–
N.N.[Cl][Pt][Cl] [Cisplatin]	5.39 µM	8.87 µM	Disruption of EWS-FLI1 binding compared with p53 binding in the parallel assays [1]: disrupt both EWS-FLI1 and p53 binding similarly
CC(C)/N=c1\cc2n(-c3ccc(Cl)cc3)c3ccccc3nc-2cc1Nc1ccc(Cl)cc1 [Clofazimine]	0.202 µM	0.203 µM	–
CN(C)c1ccc(/C=C2\C(=O)Nc3ccccc32)cc1 [DMBI]	3.37 µM	3.78 µM	–
COc1cccc2c1C(=O)c1c(O)c3c(c(O)c1C2=O)C[C@@](O)(C(C)=O)C[C@@H]3O[C@H]1C[C@H](N)[C@H](O)[C@H](C)O1 [Daunorubicin]	4.48 µM	–	Disruption of EWS-FLI1 binding compared with p53 binding in the parallel assays [1]: disrupt both EWS-FLI1 and p53 binding similarly
COc1cccc2c1C(=O)c1c(O)c3c(c(O)c1C2=O)C[C@@](O)(C(=O)CO)C[C@@H]3O[C@H]1C[C@H](N)[C@H](O)[C@H](C)O1 [Doxorubincin]	0.344 µM	–	Disruption of EWS-FLI1 binding compared with p53 binding in the parallel assays [1]: disrupt both EWS-FLI1 and p53 binding similarly; Separation of inhibition of the NR0B1 and UbC reporters [3]: no separation; IC50 [2]: 1.22 µM
COc1cc2c(cc1O)CCN[C@]21CS[C@@H]2c3c(OC(C)=O)c(C)c4c(c3[C@H](COC1=O)N1[C@@H]2[C@H]2c3c(cc(C)c(OC)c3O)C[C@@H]([C@@H]1O)N2C)OCO4 [ET-743, trabectedin]	–	–	Growth of Ewing sarcoma cells [4]: inhibited; Expression of EWS-FLI1 downstream targets [5]: reduced
O=c1c2ccccc2[se]n1-c1ccccc1 [Ebselen]	0.631 µM	> 10 µM	Separation of inhibition of the NR0B1 and UbC reporters [3]: modulated the NR0B1 and UbC reporters equally
COc1cccc2c1C(=O)c1c(O)c3c(c(O)c1C2=O)C[C@@](O)(C(=O)CO)C[C@@H]3O[C@H]1C[C@H](N)[C@@H](O)[C@H](C)O1 [Epirubicin]	0.042 µM	–	Separation of inhibition of the NR0B1 and UbC reporters [3]: no separation; IC50 [2]: 0.389 µM
CCOc1ccc(C=C2SC(=O)N(CCN)C2=O)cc1.Cl [Erk inihibitor]	3.35 µM	> 10 µM	Separation of inhibition of the NR0B1 and UbC reporters [3]: modulated the NR0B1 and UbC reporters equally
CCOc1ccc2c(c1)C(C)=CC(C)(C)N2 [Ethoxyqiun]	0.464 µM	0.484 µM	–
Cn1c2ccccc2c2c3c(c4c5ccccc5n(CCC#N)c4c21)CNC3=O [Go 6976]	–	2.81 µM	–
COc1ccc2[nH]c([S+]([O-])Cc3ncc(C)c(OC)c3C)nc2c1 (stereo not drawn) [Omeprazole]	7.33 µM	–	–
CC(=O)[O][Hg][c]1ccccc1 [Phenylmericuric Acetate]	0.016 µM	0.025 µM	–
CCN(CC)CCCC(C)Nc1c2ccc(Cl)cc2nc2ccc(OC)cc12 (stereo not drawn) [Quinacrine HCl]	7.03 µM	6.06 µM	–
c1nc2nc(Nc3ccc(N4CCOCC4)cc3)nc(NC3CCCCC3)c2[nH]1 [Reversine]	2.42 µM	–	IC50 [2]: 2.71 µM
CC(C)=CC[C@@H](O)C1=CC(=O)c2c(O)ccc(O)c2C1=O [Shikonin]	0.6 µM	–	IC50 [2]: 0.633 µM
Verteporfin	0.342 µM	–	–
mithramycin	–	–	Growth of Ewing sarcoma cells [4]: inhibited; Expression of EWS-FLI1 downstream targets [5]: reduced
